Data set [1] relates to 30N82I88D. Put plainly: microbe, parasite or virus in culture. It is filed as cell-based, HIV-1. The settings on record: Human immunodeficiency virus 1, read-out: Cell-based assay (MT-4) EC50 30N82I88D.
The test system of data set [2] is 48V82A90M. The data set is described as follows: microbe, parasite or virus in culture. The settings on record: Human immunodeficiency virus 1, read-out: Cell-based assay (MT-4) EC50 48V82A90M. Further details: species or system HIV-1.
Data set [3] relates to 48V54V82S. Put plainly: microbe, parasite or virus in culture. Also noted: species or system HIV-1. The following applies: Human immunodeficiency virus 1, read-out: Cell-based assay (MT-4) EC50 48V54V82S.
Data set [4] deals with recombinant HIV-1 strain, protease 54V/71V/82S.
Data set [5] has as its system recombinant HIV-1 strain, protease 30N/50S/82I/88D.
Data set [6] concerns WT HIV-1. Put plainly: microbe, parasite or virus in culture. It is filed as cell-based.
In data set [7] the test system is recombinant HIV-1 strain, protease 48V/54V/71V/82S.
Data set [8] has as its system recombinant HIV-1 strain, protease 10F/46I/71V/82T/90M.
Data set [9] concerns recombinant HIV-1 strain, protease 10R/46I/82T/84V.
Data set [10] deals with recombinant HIV-1 strain, protease 46I/47V/50V.
For data set [11], the system named is recombinant HIV-1 strains with resistance mutations in the protease gene. Put plainly: Cross-resistance profile assay, whole panel of mutant viruses. It is filed as cell-based.
Data set [12] deals with mutant HIV-1 with I84V/L90M mutations in the protease gene. The data set is classed as cell-based. The settings on record: for EC50: MT-4, 84V90M, read-out: Cell-based assay (MT-4) EC50/nM 84V90M.
The subject of data set [13] is recombinant HIV-1 strain, protease 10I/48V/71V/82A/90M.
In data set [14] the test system is recombinant HIV-1 strain, protease 10I/48V/54V/82A.
The subject of data set [15] is recombinant HIV-1 strain, protease 46I/84A.
The target of data set [16] is T1, 84V90M (Human immunodeficiency virus type 1 group M subtype B, UniProt P04585, I572V/L578M). Put plainly: biochemical. Also noted: species or system HIV-1.
The test system of data set [17] is 46I50V. Put plainly: microbe, parasite or virus in culture. It is filed as cell-based, HIV-1. The following applies: Human immunodeficiency virus 1, read-out: Cell-based assay (MT-4) EC50 46I50V.
In data set [18] the target is T1, 84V90M. Put plainly: cell-based. Also noted: species or system HIV-1.
Data set [19] deals with WT. The data set is described as follows: microbe, parasite or virus in culture. It is filed as cell-based, HIV-1. The settings on record: Human immunodeficiency virus 1, read-out: Cell-based assay (MT-4) EC50 WT.
The subject of data set [20] is 48V54V82A. The data set is described as follows: microbe, parasite or virus in culture. The settings on record: Human immunodeficiency virus 1, read-out: Cell-based assay (MT-4) EC50 48V54V82A. The data set is classed as cell-based, HIV-1.
For data set [21], the system named is recombinant HIV-1 strain, protease 10I/84V/71V/73S/90M.
In data set [22] the test system is 48V54V82S. Also noted: species or system HIV-1. The following applies: MT-4, 48V54V82S; read-out: Cell-based assay (MT-4) EC50/nM 48V54V82S.
For data set [23], the system named is 48V82A90M. Further details: species or system HIV-1. The settings on record: MT-4, 48V82A90M; read-out: Cell-based assay (MT-4) EC50/nM 48V82A90M.
Data set [24] addresses T1, 84V90M. Put plainly: Enzymatic assay, IC50 against 84V90M mutant protease. It is filed as biochemical, HIV-1.
Data set [25] deals with 48V54V82A. Also noted: species or system HIV-1. The following applies: MT-4, 48V54V82A; read-out: Cell-based assay (MT-4) EC50/nM 48V54V82A.
Data set [26] addresses recombinant HIV-1 protease (Human immunodeficiency virus type 1 group M subtype B, UniProt P04585). Put plainly: biochemical. It is filed as biochemical. The settings on record: for IC50: read-out: Enzymatic assay WT IC50/nM.
For data set [27], the system named is 46I50V. Also noted: species or system HIV-1. The settings on record: MT-4, 46I50V; read-out: Cell-based assay (MT-4) EC50/nM 46I50V.
Data set [28] has as its system 30N82I88D. Also noted: species or system HIV-1. The following applies: MT-4, 30N82I88D; read-out: Cell-based assay (MT-4) EC50/nM 30N82I88D.
Data set [29] deals with T2, GS-7340 Ester Hydrolase (Homo sapiens, UniProt P10619).
T2 construct: from tissue; host or cells: human peripheral blood mononuclear cells (extract and column pools)
The data set is described as follows: biochemical.

The nature of data set [30]: in vitro. The settings on record: human.
Data set [31] has as its system MT-2 cells.
The test system of data set [32] is PBMC in intact human whole blood.
Data set [33] relates to Quiescent PBMC.
Setting [34] is: Human immunodeficiency virus 1, read-out: EC50 [nM] WT HIV-1.
Where [35] appears, read: MT-4, WT, read-out: Cell-based assay (MT-4) EC50/nM WT.

Read-outs that look alike come from different tables or passages of the source.

T2 sequence (P10619 29-326 limits assumed): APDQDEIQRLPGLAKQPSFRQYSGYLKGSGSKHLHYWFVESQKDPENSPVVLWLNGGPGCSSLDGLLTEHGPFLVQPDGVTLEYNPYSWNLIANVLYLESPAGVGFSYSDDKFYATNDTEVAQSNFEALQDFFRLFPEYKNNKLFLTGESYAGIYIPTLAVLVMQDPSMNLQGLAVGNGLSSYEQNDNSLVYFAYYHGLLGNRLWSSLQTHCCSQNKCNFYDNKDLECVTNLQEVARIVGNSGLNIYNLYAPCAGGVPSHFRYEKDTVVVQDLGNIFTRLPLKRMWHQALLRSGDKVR
T2 sequence (P10619 327-480 limits assumed): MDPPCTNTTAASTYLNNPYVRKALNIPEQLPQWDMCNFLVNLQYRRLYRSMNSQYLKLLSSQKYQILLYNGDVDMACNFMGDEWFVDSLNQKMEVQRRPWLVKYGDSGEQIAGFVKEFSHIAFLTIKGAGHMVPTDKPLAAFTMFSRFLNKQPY

On to `CCOP(=O)(COc1ccc(CC2C(O)C(O)C(Cc3ccc(OC)cc3)N(Cc3ccc(O)cc3)C(=O)N2Cc2ccc(O)cc2)cc1)OCC` (centres unmarked) [OCH3, Ph-pOH, OCH2PO3Et2], for which the EC50 in data set [1] came out at 23 nM; in [2], 48 nM; in data set [3], 106 nM.
With `CCC[C@@]1(CCc2ccccc2)CC(O)=C([C@H](CC)c2cccc(NS(=O)(=O)c3ccc(C(F)(F)F)cn3)c2)C(=O)O1` [Tipranavir], the “Fold Change in EC50 Relative to WT HIV-1” value in data set [4] was 3.5; in [5], 0.5; in [7], 2; in [8], 3; in [9] it was 5; in data set [10], 0.5. Besides, the “Fold Change in EC50 Relative to WT HIV-1” value in data set [13] came out at 0.3; in data set [14], 0.4; in [15], 1. Moreover, in [6] (setting [34]), the EC50 is 80 nM. Moreover, in data set [11] ({}), the “Total No. of Resistant Viruses” value is listed as 1. Also, the I84V/L90M fold change entry in [12] (fold difference in EC50, mutant vs. wild type) is on record as “+ (>3 to ≦10)”.
`CCCCN1C(=O)N(Cc2ccc3[nH]nc(N)c3c2)C(Cc2ccccc2)C(O)C(O)C1Cc1ccccc1` (centres unmarked) [CH3 (DMP-851)]: the EC50 in data set [1] is 69 nM; in data set [2], 22 nM; in data set [17], 17 nM; in data set [18], 918 nM; in data set [19], 54 nM; in data set [3], 30 nM. Besides, the EC50 in [20] is 33 nM. The IC50 in data set [16] came out at 9.4 nM.
For `Cc1cccc(C)c1OCC(=O)N[C@@H](Cc1ccccc1)[C@@H](O)C[C@H](Cc1ccccc1)NC(=O)[C@H](C(C)C)N1CCCNC1=O` [Lopinavir], the EC50 in [6] (setting [34]) worked out at 8 nM. In addition, the “Fold Change in EC50 Relative to WT HIV-1” value in data set [7] came to 60; in data set [8] it was 7.5; in [9], 11; in [10], 19; in [21], 11; in data set [13] it was 4.5. The “Fold Change in EC50 Relative to WT HIV-1” value in data set [15] was determined as 9. Besides, in data set [11] ({}), the “Total No. of Resistant Viruses” value is on record as 6.
Consider `CCOC(=O)C(C)NP(=O)(COc1ccc(C[C@@H]2[C@H](O)[C@@H](O)[C@@H](Cc3ccccc3)N(Cc3ccccc3)C(=O)N2Cc2ccccc2)cc1)Oc1ccccc1` (some centres unmarked) [R=H, R1=Ph, R2=Mono-Ala-Et], for which the EC50 in [6] (setting [35]) came to 310 nM; in data set [22] it was 1950 nM; in data set [23] it was 2450 nM; in data set [25], 2850 nM; in data set [12] it was 2940 nM; in data set [27], 1250 nM. The EC50 in data set [28] was 238 nM. The IC50 in data set [24] turned out to be 50 nM; in data set [26], 5 nM.
Consider `O=c1oc(Cl)c(Cl)c2ccccc12` [3,4-DCI, 3,4 dichloroisocoumarin, reference compound], for which, in data set [29], the IC50 came to 4 µM.
As usually defined, the Ki is the equilibrium dissociation constant of an inhibitor or competing ligand from its target. `CCOC(=O)C(C)OP(=O)(COc1ccc(CC(NC(=O)OC2COC3OCCC23)C(O)CN(CC(C)C)S(=O)(=O)c2ccc(OC)cc2)cc1)Oc1ccccc1` (centres unmarked) [drawing 658 R1=OPh R2=Lac-Et] displayed a CC50 at 5 days in data set [30] of 5 to 50 µM. Moreover, the Ki in data set [26] (Ki (pM), class symbols, Table 10) lay within 10 to 100 pM.
As to `CCCCOC(=O)C(C)NP(=O)(COc1ccc(CC(NC(=O)OC2COC3OCCC23)C(O)CN(CC(C)C)S(=O)(=O)c2ccc(OC)cc2)cc1)NC(C)C(=O)OCCCC` (centres unmarked) [GS-16503], the “Metabolism (conversion to acid metabolites), increase at 1 μM vs. 10 μM” value in [31] was 3 fold. For the same molecule, in [32], the “Intracellular Acid Metabolite Concentration” value turned out to be 279 ± 47 µM; the “Intracellular Prodrug Concentration” value is 61 ± 40 µM; the “Intracellular Prodrug and Metabolites Concentration, uM: Acid Metabolite” value was found to be 279 ± 47 µM; the “Intracellular Prodrug and Metabolites Concentration: Prodrug” value is 61 ± 40 µM. Moreover, the “Intracellular Prodrug and Metabolites Concentration: Total” value in [32] was 340 ± 35 µM. Further, the “Total No. of Resistant Viruses” value in data set [11] (of 11 mutant viruses, resistance = 5-fold and higher change in EC50 relative to wild-type) is 0. The “Cell-Associated PI, pmol/mln cells: Prodrug” value in [33] came to 0 pmol/mln cells.
For `CCOC(=O)C(C)OP(=O)(COc1ccc(C[C@H](NC(=O)O[C@H]2CO[C@H]3OCC[C@H]32)[C@H](O)CN(CC(C)C)S(=O)(=O)c2ccc(OC)cc2)cc1)Oc1ccccc1` (some centres unmarked) [GS-17394], in [31], the “Metabolism (conversion to acid metabolites), increase at 1 μM vs. 10 μM” value is listed as “independent”. Moreover, in data set [32], the “Intracellular Acid Metabolite Concentration” value worked out at 629 ± 303 µM; the “Intracellular Prodrug Concentration” value turned out to be 69 ± 85 µM; the “Intracellular Prodrug and Metabolites Concentration, uM: Acid Metabolite” value worked out at 629 ± 303 µM; the “Intracellular Prodrug and Metabolites Concentration: Prodrug” value worked out at 69 ± 85 µM. Moreover, the “Intracellular Prodrug and Metabolites Concentration: Total” value in [32] was found to be 698 ± 301 µM. In addition, the “Cell-Associated PI, pmol/mln cells: Prodrug” value in [33] was 0 pmol/mln cells.
With `CCOP(=O)(CNC(=O)Oc1ccc(C[C@@H]2[C@H](O)[C@@H](O)[C@@H](Cc3ccc(OC)cc3)N(Cc3cccc(N)c3)C(=O)N2Cc2cccc(N)c2)cc1)OCC` [R=OCH3, R1=Ph-mNH2, R2=OCONH(CH2)PO3Et2], the EC50 in [6] (setting [35]) came out at 58 nM; in data set [22], 203 nM; in [23], 185 nM; in data set [25], 223 nM; in [12] it was 2150 nM; in data set [27], 104 nM. In addition, in data set [28], the EC50 turned out to be 68 nM. Besides, the IC50 in data set [24] was determined as 85 nM; in data set [26], 9.9 nM.
Regarding `CCOP(=O)(COc1ccc(CC2C(O)C(O)C(Cc3ccc(OC)cc3)N(Cc3cccnc3)C(=O)N2Cc2cccnc2)cc1)OCC` (centres unmarked) [OCH3, m-pyridine, OCH2PO3Et2], the EC50 in data set [1] stood at 106 nM; in [2], 480 nM; in [17], 352 nM; in data set [18], 765 nM; in data set [3], 970 nM; in data set [20] it was 1020 nM.

The values above are taken from patent US20060115815A1 (priority 2002, published 2006).
